From patent publication US7713963B2, “Acylated indanyl amines and their use as pharmaceuticals” (sanofi-aventis Deutschland GmbH, priority 2001, dated 2010)
Like-named read-outs stand apart in the source and are kept apart here.

Legend:
eNOS promoter = experiment: Activation of eNOS transcription (eNOS promoter-luciferase reporter gene assay); type: cell-based, human; settings: 18 h incubation; for maximal fold induction / TIR (max): maximum transcription induction ratio (luciferase with compound / solvent alone); for maximal fold induction: read-out: TIR (max); for EC50: EC50 of transcription induction ratio, determined graphically, human endothelial cell line, read-out: EC-50
Method: Measurement of activation of eNOS transcription Activation of eNOS transcription was measured as described in detail in Li et al. “Activation of protein kinase C alpha and/or epsilon enhances transcription of the human endothelial nitric oxide synthase gene”, Mol. Pharmacol. 1998; 53: 630-637. Briefly, a 3.5 kB long fragment 5′ of the starting codon of the eNOS gene was cloned, sequenced and cloned in firefly luciferase expression plasmids to monitor activation of the eNOS promoter by reporter gene activity. A human endothelial cell line stable transfected and expressing this promoter-reporter construct was used for compound testing. Cells were incubated for 18 h with compounds. All compounds were dissolved in sterile DMSO. A final concentration of 0.5% DMSO in complete medium was allowed. Induction of reporter gene expression in these cells was measured using a standard luciferase assay system (Promega, Cat. No E150) according to the manufacturer's instructions. Luciferase induction in cells incubated with compounds were compared to those incubated with solvent alone. The ratio of both activities (transcription induction ratio, TIR) was plotted as a function of compound concentration. […] EC50 values of transcription induction ratios as a function of compound concentration were determined graphically.

[1] = Homo sapiens, Endothelial cell, 18 h

Compound | melting point [°C] | EC50 (eNOS promoter; [1]) [µM] | maximal fold induction (eNOS promoter; Homo sapiens, 18 h) | EC50 (eNOS promoter) [µM] | TIR (max) (eNOS promoter)
COc1cc2c(cc1OC)CC(NC(=O)c1ccc(F)cc1)C2 [Compound 3, 4-FLUORO-N-(5,6-DIMETHOXY-INDAN-2-YL)-BENZAMIDE] | 160 |  |  |  | 
O=C(NC1Cc2ccccc2C1)c1ccc(OCc2ccccc2)cc1 [Compound 40, 4-BENZYLOXY-N-INDAN-2-YL-BENZAMIDE] | 158.5 |  |  |  | 
O=C(NC1Cc2ccccc2C1)c1cc(Cl)ccc1F [Compound 330, 5-CHLORO-2-FLUORO-N-INDAN-2-YL-BENZAMIDE] |  | 12 | 2.2 |  | 
O=C(NC1Cc2ccccc2C1)c1ccc(Cl)cc1Br [Compound 331, 2-BROMO-4-CHLORO-N-INDAN-2-YL-BENZAMIDE] |  | 0.147 | 2.8 |  | 
Cc1ccc2c(Cl)c(C(=O)NC3Cc4ccccc4C3)sc2c1 [Compound 332, 3-CHLORO-6-METHYL-BENZO[B]THIOPHENE-2-CARBOXYLIC ACID INDAN-2-YLAMIDE] |  | 4 | 2 |  | 
Cc1c(C(=O)NC2Cc3ccccc3C2)cnn1-c1ccc(Cl)cc1 [Compound 341, 1-(4-CHLORO-PHENYL)-5-METHYL-1H-PYRAZOLE-4-CARBOXYLIC ACID INDAN-2-YLAMIDE] |  | 22 | 2.5 |  | 
Cc1csc(C(=O)NC2Cc3ccccc3C2)c1Cl [Compound 342, 3-CHLORO-4-METHYL-THIOPHENE-2-CARBOXYLIC ACID INDAN-2-YLAMIDE] |  | 0.287 | 3 |  | 
Cc1ccc(F)c(C(=O)NC2Cc3ccccc3C2)c1Cl [Compound 346, 2-CHLORO-6-FLUORO-N-INDAN-2-YL-3-METHYL-BENZAMIDE] |  | 26 | 2.6 |  | 
O=C(NC1Cc2ccccc2C1)c1ccc(Br)cc1F [Compound 350, 4-BROMO-2-FLUORO-N-INDAN-2-YL-BENZAMIDE] |  | 0.523 | 2.9 |  | 
O=C(NC1Cc2ccccc2C1)c1c(F)cccc1Br [Compound 358, 2-BROMO-6-FLUORO-N-INDAN-2-YL-BENZAMIDE] |  | 4.7 | 2.5 |  | 
O=C(NC1Cc2ccccc2C1)c1c(F)ccc(F)c1Cl [Compound 360, 2-CHLORO-3,6-DIFLUORO-N-INDAN-2-YL-BENZAMIDE] |  | 10 | 2.6 |  | 
Cc1c(C(=O)NC2Cc3ccccc3C2)cccc1C(F)(F)F [Compound 361, N-INDAN-2-YL-2-METHYL-3-TRIFLUOROMETHYL-BENZAMIDE] |  | 21 | 2.5 |  | 
Cc1cc(Br)c(C(=O)NC2Cc3ccccc3C2)s1 [Compound 364, 3-BROMO-5-METHYL-THIOPHENE-2-CARBOXYLIC ACID INDAN-2-YLAMIDE] |  | 2.1 | 2.9 |  | 
Cc1sccc1C(=O)NC1Cc2ccccc2C1 [Compound 365, 2-METHYL-THIOPHENE-3-CARBOXYLIC ACID INDAN-2-YLAMIDE] |  | 0.25 | 3 |  | 
CCc1sccc1C(=O)NC1Cc2ccccc2C1 [Compound 366, 2-ETHYL-THIOPHENE-3-CARBOXYLIC ACID INDAN-2-YLAMIDE] |  | 37 | 2.5 |  | 
Cc1cc(C(=O)NC2Cc3ccccc3C2)c(C)s1 [Compound 368, 2,5-DIMETHYL-THIOPHENE-3-CARBOXYLIC ACID INDAN-2-YLAMIDE] |  | 17 | 2.5 |  | 
CC(C)C(=O)Nc1cccc(C(=O)NC2Cc3ccccc3C2)c1 [Compound 372, N-INDAN-2-YL-3-ISOBUTYRYLAMINO-BENZAMIDE] |  | 1.6 | 2.7 |  | 
CCCC(=O)Nc1cccc(C(=O)NC2Cc3ccccc3C2)c1 [Compound 375, 3-BUTYRYLAMINO-N-INDAN-2-YL-BENZAMIDE] |  | 8 | 2.3 |  | 
O=C(NC1Cc2ccccc2C1)c1cccc(NC(=O)C2CC2)c1 [Compound 376, 3-(CYCLOPROPANECARBONYL-AMINO)-N-INDAN-2-YL-BENZAMIDE] |  | 5.3 | 2.4 |  | 
CC(C)(C)C(=O)Nc1cccc(C(=O)NC2Cc3ccccc3C2)c1 [Compound 380, 3-(2,2-DIMETHYL-PROPIONYLAMINO)-N-INDAN-2-YL-BENZAMIDE] |  | 2.3 | 2.6 |  | 
CS(=O)(=O)Nc1cccc(C(=O)NC2Cc3ccccc3C2)c1 [Compound 388, N-INDAN-2-YL-3-METHANE SULFONYLAMINO-BENZAMIDE] |  |  |  | 1.1 | 2.4
O=C(NC1Cc2cccc(C=CC(=O)N3CCOCC3)c2C1)c1ccc(F)cc1 (stereo not drawn) [Compound 412, 4-FLUORO-N-[4-(3-MORPHOLIN-4-YL-3-OXO-PROPENYL)-NDAN-2-YL]-BENZAMIDE] |  |  |  | 1 | 2.5

The next lines start with results.

melting point [°C] | EC50 (eNOS promoter; [1]) [µM] | Compound | maximal fold induction (eNOS promoter; Homo sapiens, 18 h) | EC50 (eNOS promoter) [µM] | TIR (max) (eNOS promoter)
 | 12 | Cc1ccc(C(=O)Nc2cccc(C(=O)NC3Cc4ccccc4C3)c2)cc1 [Compound 381, 3-(4-METHYL-BENZOYLAMINO)-BENZOIC ACID INDAN-2-YLAMIDE] | 2.5 |  | 
 | 21 | O=C(NC1Cc2ccccc2C1)c1cccc(Br)c1 [Compound 382, 3-BROMO-N-INDAN-2-YL-BENZAMIDE] | 2.5 |  | 
 | 5.1 | Nc1c(C(=O)NC2Cc3ccccc3C2)cnn1-c1ccccn1 [Compound 386A, 5-AMINO-1-PYRIDIN-2-YL-1H-PYRAZOLE-4-CARBOXYLIC ACID INDAN-2-YLAMIDE] | 3.3 |  | 
 | 0.309 | O=C(NC1Cc2ccccc2C1)c1ccc(OCC(F)(F)F)cc1 [Compound 386B, N-INDAN-2-YL-4-(2,2,2-TRIFLUORO-ETHOXY)-BENZAMIDE] | 2.5 |  | 
 | 32 | O=C(NC1Cc2ccccc2C1)c1ccc(Cl)nc1 [Compound 387, 6-CHLORO-N-INDAN-2-YL-NICOTINAMIDE] | 2.6 |  | 
167 |  | O=C(NC1Cc2ccc([N+](=O)[O-])cc2C1)c1ccc(F)cc1 (stereo not drawn) [Compound 389, 4-FLUORO-N-(5-NITRO-INDAN-2-YL)-BENZAMIDE] |  |  | 
 | 30 | O=C(NC1Cc2cc(Br)c(Br)cc2C1)c1ccc(F)cc1 [Compound 397, N-(5,6-DIBROMO-INDAN-2-YL)-4-FLUORO-BENZAMIDE] | 1.7 |  | 
193 |  | O=C(NC1Cc2ccc(-c3ccc(F)cc3)cc2C1)c1ccc(F)cc1 (stereo not drawn) [Compound 398A, 4-FLUORO-N-[5-(4-FLUOROPHENYL)-INDAN-2-YL]-BENZAMIDE] |  |  | 
148 |  | CC(=O)c1ccc2c(c1)CC(NC(=O)c1ccc(F)cc1)C2 (stereo not drawn) [Compound 399, N-(5-ACETYL-INDAN-2-YL)-4-FLUORO-BENZAMIDE] |  |  | 
 | 30 | O=C(NC1Cc2ccc(OS(=O)(=O)c3ccccc3)cc2C1)c1ccc(F)cc1 (stereo not drawn) [Compound 405, BENZENESULFONIC ACID 2-(4-FLUOROBENZOYLAMINO)-INDAN-5-YL ESTER] | 2.8 |  | 
 | 11 | O=C(NC1Cc2cccc(I)c2C1)c1ccc(F)cc1 (stereo not drawn) [Compound 408, 4-FLUORO-N-(4-IODO-INDAN-2-YL)-BENZAMIDE] | 2.5 |  | 
 | 2 | CN(C)C(=O)C=Cc1cccc2c1CC(NC(=O)c1ccc(F)cc1)C2 (stereo not drawn) [Compound 411, N-[4-(2-DIMETHYLCARBAMOYL-VINYL)-INDAN-2-YL]-4-FLUORO-BENZAMIDE] | 2.5 |  | 
 | 8.5 | O=C(C=Cc1cccc2c1CC(NC(=O)c1ccc(F)cc1)C2)Nc1ccc(Cl)cc1 (stereo not drawn) [Compound 413, N-{4-[2-(4-CHLORO-PHENYLCARBAMOYL)-VINYL]-INDAN-2-YL}-4-FLUORO-BENZAMIDE] | 2.5 |  | 
 | 3.7 | Nc1c(C(=O)NC2Cc3ccccc3C2)cnn1-c1ccccc1 [Compound 427, 5-AMINO-1-PHENYL-1H-PYRAZOLE-4-CARBOXYLIC ACID INDAN-2-YLAMIDE] | 2.5 |  | 
 | 0.841 | CCc1cccc2c1CC(NC(=O)c1ccc(F)cc1)C2 (stereo not drawn) [Compound 428, N-(4-ETHYL-INDAN-2-YL)-4-FLUORO-BENZAMIDE] | 2.8 |  | 
 | 0.6 | O=C(NC1Cc2c(I)ccc(I)c2C1)c1ccc(F)cc1 [Compound 429, N-(4,7-DIIODO-INDAN-2-YL)-4-FLUORO-BENZAMIDE] | 2.8 |  | 
 | 9.6 | O=C(NC1Cc2ccccc2C1)c1cccc(-c2cccnc2)c1 [Compound 432, N-INDAN-2-YL-3-PYRIDIN-3-YL-BENZAMIDE] | 2.5 |  | 
 | 19 | O=C(NC1Cc2ccccc2C1)c1cccc(-c2ccccn2)c1 [Compound 433, N-INDAN-2-YL-3-PYRIDIN-2-YL-BENZAMIDE] | 2.6 |  | 
 | 14 | O=C(NC1Cc2ccccc2C1)c1ccc(-c2cccnc2)cc1 [Compound 435, N-INDAN-2-YL-4-PYRIDIN-3-YL-BENZAMIDE] | 2.5 |  | 
 | 18 | O=C(NC1Cc2ccccc2C1)c1ccc(-c2ccccn2)cc1 [Compound 436, N-INDAN-2-YL-4-PYRIDIN-2-YL-BENZAMIDE] | 2.6 |  | 
 | 8.9 | O=C(NC1Cc2cccc(C(F)(F)F)c2C1)c1ccc(F)cc1 (stereo not drawn) [Compound 439, 4-FLUORO-N-(4-TRIFLUOROMETHYL-INDAN-2-YL)-BENZAMIDE] | 2.6 |  | 
